In ChEMBL document CHEMBL4402557, “Nidufexor (LMB763), a Novel FXR Modulator for the Treatment of Nonalcoholic Steatohepatitis” (J Med Chem, 2020):
Values after ≈ are worked out from the molar mass of the structure shown. Active and inactive are the calls of the source. The calls are words filed in the database; no cut-off is given here.

Key:
[1] = target: T1, Bile acid receptor (Homo sapiens, UniProt Q96RI1); experiment: Agonist activity at GST-tagged human FXR-LBD (193 to 472 residues) using biotinylated SRC-1 peptide as substrate incubated for 1 hrs by HTRF assay
T1 sequence (Q96RI1 whole entry): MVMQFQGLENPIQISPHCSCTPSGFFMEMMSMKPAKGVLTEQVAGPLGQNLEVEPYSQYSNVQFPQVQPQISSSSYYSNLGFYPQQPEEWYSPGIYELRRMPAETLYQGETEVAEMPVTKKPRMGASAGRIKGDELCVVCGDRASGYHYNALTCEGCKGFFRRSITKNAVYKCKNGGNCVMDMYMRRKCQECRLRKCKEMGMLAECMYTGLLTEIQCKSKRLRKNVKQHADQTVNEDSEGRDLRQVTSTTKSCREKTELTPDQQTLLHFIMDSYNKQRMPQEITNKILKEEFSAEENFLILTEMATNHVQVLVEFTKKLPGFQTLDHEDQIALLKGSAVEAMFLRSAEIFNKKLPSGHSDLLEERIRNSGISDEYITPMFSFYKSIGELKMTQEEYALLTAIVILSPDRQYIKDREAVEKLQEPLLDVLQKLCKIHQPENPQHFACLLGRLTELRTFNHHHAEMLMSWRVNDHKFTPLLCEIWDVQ

[2] = Solubility of compound in pH 6.5 FASSIF at 2 mg measured for 5 to 60 mins by UV spectroscopic method; type: physicochemical
[3] = Oral bioavailability in Wistar rat at 10 mg/kg in presence of TRIS salt; type: ADME, organism-based; conditions: in vivo
[4] = Volume of distribution at steady state in Wistar rat at 3 mg/kg, iv; type: ADME, organism-based; conditions: in vivo, read-out: Vdss
[5] = Clearance in Wistar rat at 3 mg/kg, iv; type: ADME, organism-based; conditions: in vivo
[6] = Oral bioavailability in Wistar rat at 10 mg/kg in presence of PEG 300/D5W(3:1); type: ADME, organism-based; conditions: in vivo
[7] = Half life in Wistar rat at 3 mg/kg, iv; type: ADME, organism-based; conditions: in vivo
[8] = Permeability of the compound by PAMPA; type: ADME
[9] = Oral bioavailability in Wistar rat at 10 mg/kg in presence of 0.5% CMC/0.5% Tween 80; type: ADME, organism-based; conditions: in vivo
[10] = Oral bioavailability in Wistar rat at 100 mg/kg in presence of TRIS salt; type: ADME, organism-based; conditions: in vivo
[11] = target: T1, Bile acid receptor; experiment: Agonist activity at FXR transfected in human HEK293T cells o-expressing pGL3/hBSEP/luc incubated for 24 hrs by Steady-Glo reagent based luciferase reporter gene assay; type: cell-based
[12] = tested on: Mus musculus; experiment: Anti Steato-hepatitic activity in STZ/HFD induced C57BL/6J mouse STAM model assessed as reduction in NAS at 25 mg/kg, po administered via oral gavage once daily for 3 weeks and measured on 9 week by H and E staining based assay; type: functional, organism-based
[13] = Lipophilicity, logD of compound at pH 6.8; type: physicochemical; conditions: buffer

CC(=O)NCCN(C)C(=O)c1nn(C)c2c1COc1ccccc1-2
EC50 [1]: > 10 µM

CC(=O)NCCN(Cc1ccccn1)C(=O)c1nn(C)c2c1COc1ccc(Br)cc1-2
solubility [2]: < 2 µM

CC(=O)NCCN(Cc1ccccc1)C(=O)c1nn(C)c2c1COc1ccccc1-2
solubility [2]: > 175 µM

Cn1nc(C(=O)N(CCNc2cc(C(=O)O)ccc2F)Cc2cccc(F)c2)c2c1-c1cc(F)ccc1OC2
bioavailability [3]: 15%
Vd [4]: 1.43 L/kg
clearance [5]: 19.9 mL/min/kg
bioavailability [6]: 22%
half-life [7]: 1.97 h
permeability [8]: 96%
solubility [2]: > 175 µM
bioavailability [9]: 17%
bioavailability [10]: 12%

CC(=O)NCCN(Cc1cccc(F)c1)C(=O)c1nn(C)c2c1COc1ccc(Br)cc1-2
solubility [2]: 80 µM (≈ 40.1 µg/mL)

CC(=O)NCCN(Cc1ccccc1)C(=O)c1nn(C)c2c1COc1ccc(I)cc1-2
solubility [2]: 3 µM (≈ 1.59 µg/mL)

CC(=O)NCCN(Cc1ccccc1)C(=O)c1nn(C)c2c1COc1ccc(Br)cc1-2
solubility [2]: 73 µM (≈ 35.3 µg/mL)

CC(=O)NCCN(Cc1ccccc1)C(=O)c1nn(C(C)C)c2c1COc1ccc(Br)cc1-2
EC50 [1]: 6 µM
EC50 [11]: 2.7 µM

CC(=O)NCCN(Cc1ccc(F)cc1)C(=O)c1nn(C)c2c1COc1ccc(Br)cc1-2
solubility [2]: 41 µM (≈ 20.6 µg/mL)

CC(=O)NCCNC(=O)c1nn(C)c2c1COc1ccccc1-2
EC50 [1]: > 10 µM

CC(=O)NCCN(Cc1ccccc1)C(=O)c1n[nH]c2c1COc1ccc(Br)cc1-2
EC50 [1]: > 10 µM
EC50 [11]: 11 µM

CC(=O)NCCN(Cc1ccccc1)C(=O)c1nn(C)c2c1COc1ccc(Cl)cc1-2
solubility [2]: > 175 µM

CC(=O)NCCN(Cc1ccccc1F)C(=O)c1nn(C)c2c1COc1ccc(Br)cc1-2
solubility [2]: < 2 µM

CC(=O)NCCN(Cc1ccccc1)C(=O)c1nn(C)c2c1COc1ccc(C3CC3)cc1-2
solubility [2]: 9 µM (≈ 4 µg/mL)

Cn1nc(C(=O)N(CC(=O)Nc2cc(C(=O)O)ccc2F)Cc2cccc(F)c2)c2c1-c1cc(F)ccc1OC2
bioavailability [3]: 56%
Vd [4]: 1.6 L/kg
clearance [5]: 9.6 mL/min/kg
bioavailability [6]: 36%
half-life [7]: 3.6 h
permeability [8]: 86%
solubility [2]: 46 µM (≈ 25.3 µg/mL)
bioavailability [9]: 5%
bioavailability [10]: 28%

CC(=O)NCCN(Cc1ccccc1)C(=O)c1c2c(nn1C)-c1cc(Br)ccc1OC2
EC50 [1]: 6 µM
EC50 [11]: > 20 µM

CC[C@H]1[C@@H](O)[C@@H]2[C@H](CC[C@]3(C)[C@@H]([C@H](C)CCC(=O)O)CC[C@@H]23)[C@@]2(C)CC[C@@H](O)C[C@@H]12
Activity [12]: inactive

CC(=O)NCCN(C(=O)c1nn(C)c2c1COc1ccc(Cl)cc1-2)C(C)c1ccccc1 (racemic)
EC50 [1]: > 10 µM
EC50 [11]: > 10 µM

O=C(O)c1cc(F)c2nc(N3[C@@H]4CC[C@H]3C[C@@H](OCc3c(-c5ccccc5OC(F)(F)F)noc3C3CC3)C4)sc2c1 [TROPIFEXOR]
logD [13]: 3.2
solubility [2]: 110 µM (≈ 66.4 µg/mL)
